# Measurements: patent US20180042234A1, “FUNGICIDAL PYRAZOLES” (E I DU PONT DE NEMOURS AND COMPANY, priority 2015, published 2018)
# Marks after values point to notes of the source that are not given here.
# Legend:
# Format in all cases: in vivo
# [1] = test system: Puccinia recondita f. sp. tritici; assay: Test A: wheat leaf rust, preventive spray on wheat seedlings, visual disease rating
# Excerpt: (§1) General protocol for preparing test suspensions for Tests A-E: the test compounds were first dissolved in acetone in an amount equal to 3% of the final volume and then suspended at the desired concentration (in ppm) in acetone and purified water (50/50 mix by volume) containing 250 ppm of the surfactant Trem® 014 (polyhydric alcohol esters). The resulting test suspensions were then used in Tests A-E. Spraying a 200 ppm test suspension to the point of run-off on the test plants was the equivalent of a rate of 800 g/ha.
# The test suspension was sprayed to the point of run-off on wheat seedlings. The following day the seedlings were inoculated with a spore suspension of Puccinia recondita f. sp. tritici (the causal agent of wheat leaf rust) and incubated in a saturated atmosphere at 20° C. for 24 h, and then moved to a growth chamber at 20° C. for 7 days, after which time visual disease ratings were made.
# (§2) Results for Tests A-E are given in Table A. In the Table, a rating of 100 indicates 100% disease control and a rating of 0 indicates no disease control (relative to the controls). A dash (-) indicates no test results. All results are for 200 ppm except where followed by an asterisk “*” which indicates a 250 ppm test suspension was used or a double asterisk “**” which indicates a 50 ppm test suspension was used.
# Septoria tritici = assay: Test B: wheat leaf blotch, preventive spray on wheat seedlings, visual disease rating
# Excerpt: as §1
# The test suspension was sprayed to the point of run-off on wheat seedlings. The following day the seedlings were inoculated with a spore suspension of Septoria tritici (the causal agent of wheat leaf blotch) and incubated in a saturated atmosphere at 24° C. for 48 h, and then moved to a growth chamber at 20° C. for 19 days, after which time visual disease ratings were made.
# as §2
# Botrytis cinerea = assay: Test C: tomato Botrytis, preventive spray on tomato seedlings, visual disease rating
# Excerpt: as §1
# The test suspension was sprayed to the point of run-off on tomato seedlings. The following day the seedlings were inoculated with a spore suspension of Botrytis cinerea (the causal agent of tomato Botrytis) and incubated in a saturated atmosphere at 20° C. for 48 h, and then moved to a growth chamber at 24° C. for 3 days, after which time visual disease ratings were made.
# as §2
# [2] = test system: Blumeria graminis f sp. tritici; assay: Test D: wheat powdery mildew, preventive spray on wheat seedlings, visual disease rating
# Excerpt: as §1
# The test suspension was sprayed to the point of run-off on wheat seedlings. The following day the seedlings were inoculated with a spore dust of Blumeria graminis f sp. tritici, (also known as Erysiphe graminis f sp. tritici, the causal agent of wheat powdery mildew) and incubated in a growth chamber at 20° C. for 8 days, after which time visual disease ratings were made.
# as §2
# Septoria nodorum = assay: Test E: Septoria glume blotch, preventive spray on wheat seedlings, visual disease rating
# Excerpt: as §1
# The test suspension was sprayed to the point of run-off on wheat seedlings. The following day the seedlings were inoculated with a spore suspension of Septoria nodorum (the causal agent of Septoria glume blotch) and incubated in a saturated atmosphere at 20° C. for 48 h, and then moved to a growth chamber at 20° C. for 9 days, after which time visual disease ratings were made.
# as §2
# [3] = 200 ppm test suspension, 100 = 100% disease control, 0 = no control
SMILES,"Test A disease control rating [1, 3] [%]",Test B disease control rating (Septoria tritici; 200 ppm test suspension) [%],Test C disease control rating (Botrytis cinerea; 200 ppm test suspension) [%],Test D disease control rating ([2]; 200 ppm test suspension) [%],Test E disease control rating (Septoria nodorum; 200 ppm test suspension) [%],Test A disease control rating ([1]; 250 ppm test suspension (*)),Test B disease control rating (Septoria tritici; 250 ppm test suspension (*)),Test C disease control rating (Botrytis cinerea; 250 ppm test suspension (*)),Test D disease control rating ([2]; 250 ppm test suspension (*)),Test E disease control rating (Septoria nodorum; 250 ppm test suspension (*))
CCCCCCCCc1c(C)nn(C)c1Nc1ccc(F)cc1 [Compound 1],41,0,0,63,0,–,–,–,–,–
CCCCCCCCc1c(C)nn(C)c1Nc1ccc(F)cc1Cl [Compound 2],0,0,0,0,0,–,–,–,–,–
Cc1nn(C)c(Nc2c(F)cc([N+](=O)[O-])cc2F)c1C1=CCCCC1 [Compound 4],32,93,92,0,0,–,–,–,–,–
Cc1nn(C)c(Nc2c(F)cc(N)cc2F)c1C1=CCCCC1 [Compound 5],0,1,0,0,0,–,–,–,–,–
"Cc1nn(C)c(Nc2c(F)cc(Cl)cc2F)c1C1=CCCCC1 [Compound 6, N-(4-chloro-2,6-difluorophenyl)-4-(1-cyclohexen-1-yl)-1,3-dimethyl-1H-pyrazol-5-amine]",19,84,98,0,0,–,–,–,–,–
CCC(=O)c1c(C)nn(C)c1Oc1c(F)cccc1F [Compound 7],0,62,0,0,0,–,–,–,–,–
Cc1nn(C)c(Nc2ccc(F)cc2Cl)c1C1=CCC(C#N)CC1 (stereo not shown) [Compound 13],–,–,–,–,–,67* %,97* %,79* %,13* %,0* %
Cc1nn(C)c(Nc2ccc(F)cc2)c1C1CCC(C)(C)CC1 [Compound 14],–,–,–,–,–,67* %,33* %,0* %,27* %,62* %
Cc1nn(C)c(Nc2ccc(F)cc2F)c1C1CCC(C)CC1 (stereo not shown) [Compound 16],–,–,–,–,–,53* %,0* %,19* %,97* %,19* %
CC(=NO)c1c(C)nn(C)c1Nc1ccc(F)cc1Cl [Compound 34],–,–,–,–,–,28* %,76* %,0* %,64* %,0* %
C=C(C)c1c(C)nn(C)c1Nc1c(F)cc([N+](=O)[O-])cc1F [Compound 36],–,–,–,–,–,55* %,88* %,0* %,27* %,0* %
Cc1nn(C)c(Nc2c(F)cc(Cl)cc2F)c1C1=CCCC1 [Compound 43],68,92,0,0,0,–,–,–,–,–
CCC(O)(CC)c1c(C)nn(C)c1Oc1c(F)cccc1F [Compound 44],0,15,3,43,0,–,–,–,–,–
CCCON=C(CC)c1c(C)nn(C)c1Oc1c(F)cccc1F [Compound 45],0,3,0,0,0,–,–,–,–,–
"Cc1nn(C)c(Nc2c(F)cc(Cl)cc2F)c1C1CCCCC1 [Compound 46, N-(4-chloro-2,6-difluorophenyl)-4-cyclohexyl-1,3-dimethyl-1H-pyrazol-5-amine]",92,99,95,98,0,–,–,–,–,–
Cc1nn(C)c(Nc2ccc(F)cc2Cl)c1C1CCOCC1 [Compound 56],–,–,–,–,–,55* %,100* %,100* %,99* %,–
Cc1nn(C)c(Nc2ccc(F)cc2)c1C1CCOCC1 [Compound 57],–,–,–,–,–,0* %,44* %,0* %,89* %,–
Cc1nn(C)c(Nc2ccc(F)cc2F)c1C1=CCOCC1 [Compound 58],–,–,–,–,–,0* %,25* %,0* %,0* %,–
Cc1nn(C)c(Nc2ccc(F)cc2F)c1C1CCOCC1 [Compound 59],–,–,–,–,–,41* %,92* %,24* %,98* %,–
Cc1nn(C)c(Nc2ccc(F)cc2Cl)c1C1=CCC(C)(C)CC1 [Compound 60],–,–,–,–,–,19* %,16* %,0* %,0* %,–
Cc1nn(C)c(Nc2ccc(F)cc2Cl)c1C1CCC(C)CC1 (stereo not shown) [Compound 61],–,–,–,–,–,0* %,53* %,0* %,97* %,–
Cc1nn(C)c(Nc2ccc(F)cc2Cl)c1C1CCC(C)(C)CC1 [Compound 62],–,–,–,–,–,68* %,9* %,0* %,96* %,–
Cc1nn(C)c(Nc2ccc(F)cc2F)c1C1CCC(C#N)CC1 (stereo not shown) [Compound 63],–,–,–,–,–,86* %,55* %,0* %,96* %,–
Cc1nn(C)c(Nc2ccc(F)cc2)c1C1CCC(C)CC1 (stereo not shown) [Compound 64],–,–,–,–,–,55* %,58* %,0* %,96* %,–
Cc1nn(C)c(Nc2ccc(F)cc2Cl)c1C1CCC(C#N)CC1 (stereo not shown) [Compound 65],–,–,–,–,–,55* %,54* %,0* %,13* %,–
